Results reported in PMC12171880, “Selectivity and Safety Characterization of a Xanthine–Imidazothiazole Lead Structure: a Novel Tryptophan Hydroxylase Inhibitor of Peripheral Serotonin Synthesis” (ACS Pharmacology & Translational Science, 2025).
Where “and” joins values, the source holds several entries; their conditions need not be identical. Equal entries are not always repeated.

Tests used:
[1] = molecular target: T1, human recombinant TPH1 (Homo sapiens, UniProt P17752); assay: TPH1 enzymatic activity assay (fluorescence, 96-well); format: biochemical
T1 construct: Full-length human TPH1 and TPH2 (UniProt entries P17752 and Q8IWU9); MBP (N); made in house
T1 sequence (P17752 1-444): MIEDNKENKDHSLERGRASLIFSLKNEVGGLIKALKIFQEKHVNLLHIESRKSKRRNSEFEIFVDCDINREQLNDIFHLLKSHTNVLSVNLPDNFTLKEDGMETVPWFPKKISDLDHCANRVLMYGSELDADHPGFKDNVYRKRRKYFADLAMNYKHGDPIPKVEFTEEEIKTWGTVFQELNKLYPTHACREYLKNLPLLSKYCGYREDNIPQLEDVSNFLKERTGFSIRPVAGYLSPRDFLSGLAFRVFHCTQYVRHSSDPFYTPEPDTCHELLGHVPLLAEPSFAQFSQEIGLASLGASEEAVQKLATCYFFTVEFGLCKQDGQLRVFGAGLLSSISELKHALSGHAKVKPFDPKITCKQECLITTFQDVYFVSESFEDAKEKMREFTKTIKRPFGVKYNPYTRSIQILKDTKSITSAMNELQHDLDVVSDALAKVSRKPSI

[2] = molecular target: T2, human recombinant PAH (Homo sapiens, UniProt P00439); assay: PAH enzymatic activity assay (fluorescence, 96-well); format: biochemical
T2 construct: expression vectors for full-length human PAH (UniProt entry P00439); made in house; host or cells: E. coli T7 Express (NEB) with pRARE2
T2 sequence (P00439 1-452): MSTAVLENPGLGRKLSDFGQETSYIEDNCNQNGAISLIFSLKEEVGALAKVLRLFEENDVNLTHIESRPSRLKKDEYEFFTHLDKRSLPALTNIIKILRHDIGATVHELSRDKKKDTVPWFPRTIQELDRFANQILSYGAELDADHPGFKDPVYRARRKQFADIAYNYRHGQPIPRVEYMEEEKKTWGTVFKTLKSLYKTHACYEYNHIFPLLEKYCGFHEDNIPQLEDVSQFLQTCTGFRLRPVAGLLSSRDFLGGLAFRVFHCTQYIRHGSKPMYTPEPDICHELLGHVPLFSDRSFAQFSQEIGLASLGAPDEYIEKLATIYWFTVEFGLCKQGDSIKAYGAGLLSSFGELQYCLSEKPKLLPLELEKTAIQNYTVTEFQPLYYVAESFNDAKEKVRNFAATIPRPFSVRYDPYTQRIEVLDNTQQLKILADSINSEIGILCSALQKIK

[3] = system: Sprague–Dawley rats; assay: Dose-range finding study in rats, necropsy and organ weight; format: in vivo, rat; conditions: for Organ weight, Brain / Organ weight, Heart / Organ weight, Kidney / Organ weight, Liver / Organ weight, Lung / Organ weight, Ovary (n=3 per group) / Organ weight, Spleen / Organ weight, Testis (n=3 per group): day 8
Description: (§1) TPT-004 was formulated in 0.5% (w/v) CMC-Na in water and administered by oral gavage (PO) twice daily (b.i.d.) with a 12 h interval to the treatment groups (3 male and 3 female Sprague–Dawley rats each) for 8 days (15 successive applications). Rats were dosed with 10, 45, and 200 mg/kg, i.e., daily doses of 20, 90, and 400 mg/kg. In addition, a control group was dosed at the same frequency as the vehicle (0.5% CMC-Na).
Blood samples were collected as described below. The animal sacrifice (exsanguination) was performed on day 8. During the necropsy, the selected organs were collected, weighed, and shipped to a third-party laboratory for histopathological examination (as described below).

[4] = Toxicokinetic evaluation, plasma exposure in rats (LC-MS); format: in vivo, rat; conditions: for concentration at 30 min: both sexes, Sprague-Dawley, rat, plasma, po
Description: as §1
A blood sample of 100 μL was obtained from each rat by puncturing one of the lateral tail veins under short isoflurane anesthesia. Blood was collected in tubes containing lithium heparin and gently mixed. After centrifugation (10 min at 3000g, 4 °C), plasma was separated and stored at −20 °C until LC-MS analysis. In addition, on day 8, the rats were exsanguinated by cardiac puncture under isoflurane anesthesia. A volume of 100 μL of blood (K3-EDTA) was used for immediate cell blood count, while the rest of the blood was mixed with lithium heparin and centrifuged to generate plasma for clinical chemistry analysis.

[5] = system: brain serotonin turnover; conditions: mice, 1.5 mg/kg BID to 100 mg/kg BID; prior pharmacodynamic studies; cited from earlier work

CCn1c(=O)[nH]c(=O)c2c1nc(Cc1cn3cc(C)sc3n1)n2CC1COC1 [TPT-004]
Mean TPH1 activity [%] ([1]; 3 nM): 99.51%
IC50 ([1]; 3 nM to 10 μM, 15 μM L-Trp, 20 μM BH4): 33.4 nM
Mean TPH1 activity [%] ([1]; 10 nM): 77.11%
Mean TPH1 activity [%] ([1]; 30 nM): 52.25%
Mean TPH1 activity [%] ([1]; 100 nM): 21.29%
Mean TPH1 activity [%] ([1]; 300 nM): 7.59%
Mean TPH1 activity [%] ([1]; 1 μM): 3.62%
Mean TPH1 activity [%] ([1]; 3 μM): 3.64%
Mean TPH1 activity [%] ([1]; 10 μM): 3.21%
fold higher TPH1 inhibitory potency (lower IC50) compared to LP778902 ([1]; 33.38 vs […]): ~18
IC50 ([1]; supplementary CSV): 33 nM
Mean PAH activity [%] ([2]; 10 nM): 94.75%
IC50 ([2]; 10 nM to 30 μM, 175 μM L-Phe, 10 μM BH4): 404 nM
Mean PAH activity [%] ([2]; 30 nM): 91.12%
Mean PAH activity [%] ([2]; 100 nM): 82.79%
Mean PAH activity [%] ([2]; 300 nM): 58.10%
Mean PAH activity [%] ([2]; 1 μM): 25.53%
Mean PAH activity [%] ([2]; 3 μM): 9.81%
Mean PAH activity [%] ([2]; 10 μM): 4.37%
Mean PAH activity [%] ([2]; 30 μM): 2.49%
Selectivity ratio PAH IC50 : TPH1 IC50 ([2]; calculated from determined IC50 values): 12.09
IC50 ([2]; supplementary CSV): 404 nM
Organ weight, Brain ([3]; 10 mg/kg PO BID): 6.8 g/kg body weight
Organ weight, Heart ([3]; 10 mg/kg PO BID): 3.5 g/kg body weight
Organ weight, Kidney ([3]; 10 mg/kg PO BID): 3.8 g/kg body weight
Organ weight, Liver ([3]; 10 mg/kg PO BID): 39.4 g/kg body weight
Organ weight, Lung ([3]; 10 mg/kg PO BID): 5.3 g/kg body weight
Organ weight, Ovary (n=3 per group) ([3]; 10 mg/kg PO BID): 0.72 g/kg body weight
Organ weight, Spleen ([3]; 10 mg/kg PO BID): 2.9 g/kg body weight
Organ weight, Testis (n=3 per group) ([3]; 10 mg/kg PO BID): 8.7 g/kg body weight
Organ weight, Brain ([3]; 45 mg/kg PO BID): 6.5 g/kg body weight
Organ weight, Heart ([3]; 45 mg/kg PO BID): 3.6 g/kg body weight
Organ weight, Kidney ([3]; 45 mg/kg PO BID): 3.6 g/kg body weight
Organ weight, Liver ([3]; 45 mg/kg PO BID): 42.1 g/kg body weight
Organ weight, Lung ([3]; 45 mg/kg PO BID): 5.2 g/kg body weight
Organ weight, Ovary (n=3 per group) ([3]; 45 mg/kg PO BID): 0.55 g/kg body weight
Organ weight, Spleen ([3]; 45 mg/kg PO BID): 2.8 g/kg body weight
Organ weight, Testis (n=3 per group) ([3]; 45 mg/kg PO BID): 8.1 g/kg body weight
Organ weight, Brain ([3]; 200 mg/kg PO BID): 6.7 g/kg body weight
Organ weight, Heart ([3]; 200 mg/kg PO BID): 3.6 g/kg body weight
Organ weight, Kidney ([3]; 200 mg/kg PO BID): 4.0 g/kg body weight
Organ weight, Lung ([3]; 200 mg/kg PO BID): 5.2 g/kg body weight
Organ weight, Ovary (n=3 per group) ([3]; 200 mg/kg PO BID): 0.65 g/kg body weight
Organ weight, Spleen ([3]; 200 mg/kg PO BID): 2.8 g/kg body weight
Organ weight, Testis (n=3 per group) ([3]; 200 mg/kg PO BID): 8.4 g/kg body weight
Organ weight, Liver ([3]; 200 mg/kg PO BID, vehicle 41.2 ± 2.2, p = 0.0128): 45.2 g/kg body weight and 45.2 ± 1.2 g/kg body weight
gross lesions at necropsy ([3]; 10, 45, or 200 mg/kg BID PO, 8 days): No test-item-related gross lesions
weight of the organs, vehicle vs treatment groups, overall ([3]; 10, 45 or 200 mg/kg BID PO, 8 days, except liver at 200 mg/kg BID): No significant difference
accumulation in plasma after 15 doses ([4]; 10, 45, 200 mg/kg BID, day 1 vs day 8): absence of an accumulation effect
concentration at 30 min ([4]; 10 mg/kg, day 1, 30 min after the first application, 10 mg/kg PO): 902 ± 247 ng/mL
concentration at 30 min ([4]; 10 mg/kg, day 8, 30 min after the 15th application, 10 mg/kg BID PO): 877 ± 210 ng/mL
concentration at 30 min ([4]; 45 mg/kg, day 1, 30 min after the first application, 45 mg/kg PO): 4720 ± 2420 ng/mL
concentration at 30 min ([4]; 45 mg/kg, day 8, 30 min after the 15th application, 45 mg/kg BID PO): 5040 ± 1790 ng/mL
concentration at 30 min ([4]; 200 mg/kg, day 1, 30 min after the first application, 200 mg/kg PO): 18200 ± 6610 ng/mL
concentration at 30 min ([4]; 200 mg/kg, day 8, 30 min after the 15th application, 200 mg/kg BID PO): 14400 ± 5600 ng/mL
dose linearity correlation in plasma ([4]; day 1): 0.9987
dose linearity correlation in plasma ([4]; day 8): 0.9826
balance of brain serotonin turnover [5]: did not show an altered balance of brain serotonin turnover
